Where no end group is shown, it is not given here.
How the values were obtained:
[1] = tested on: vTreg53 TCR (transduced Jurkat T cells); test: CD69/CD25 up-regulation on vTreg53 TCR transduced Jurkat T cells with peptide-pulsed K562-A^b cells; type: cell-based, Homo sapiens (cells); murine TCR
Experimental: (§1) Figure 3. Identification of robust vTreg53 TCR agonists. Single-point mutants based on the Fat7 (A) or Fat15 (B) peptides were used to stimulate Fat-TCR transduced Jurkat T cells. Data shown are mean fluorescence intensity for CD69 up-regulation following overnight stimulation with the indicated peptides at 100 µM. (C) Potent SPs based on Fat15. Single-residue mutations from the Fat15 are shown in red. Anchor positions are shown in grey and potential TCR-facing positions are shown in green. A peptide titration of single- and double-point mutants from the Fat15 SP show up to ~4- (D; CD69) or ~8 fold (E; CD25) increase in Emax. (F) Surface plasmon resonance for Fat7, Fat15, Fat1562 and Fat2564 was used to determine the pMHC/Fat TCR affinity. All biotinylated pMHC were purified by SEC and immobilized in a streptavidin-coated SPR sensor chip from 200 up to 600 RU. Data are mean ± SD from n = 2 (A, D, E) or 3 (B) biological replicates from 1 representative of 3 independent experiments. Data shown in (F) is representative of 2 independent experiments. Figure 3—figure supplement 1. In vitro peptide stimulation of the vTreg53 TCR cells. (A) Expression of wild-type Ab MHC in stably transduced K562 cells. (B) Expression of vTreg53 TCR in stably transduced Jurkat T cells (TCRαβ-/-). (C) Fraction of CD25+/CD69+ cells following overnight stimulation with Fat mimotopes at the indicated concentrations. (D) Peptide-A^b - streptavidin PE (pAb -SAPE) titration of vTreg53 transduced Jurkat T cells. Cells were stained with 250 nM of pA^b-SAPE tetramer for 1 hr.
Cell lines were kept in a humidified incubator at 37°C with 5% CO2 unless otherwise denoted. Jurkat T cells (derived from acute T cell leukemia ATCC TIB-152) and K562 cells (ATCC CCL-243) were cultured in RPMI supplemented with 2 mM glutamax (Invitrogen), 10% FBS (Sigma),10 mM HEPES pH 8.0 (ThermoFisher), 1 mM Sodium Pyruvate (Gibco) and 50 U/ml penicillin and streptomycin (ThermoFisher). Validation of T cell lines was performed by staining with known markers pre- and post- transfection or transduction. HEK293T (Lenti-X; Takara Bio USA, #632180) cells (female derived kidney cell line) were grown in DMEM complete media (ThermoFisher) supplemented with 10% FBS, 2 mM L-glutamine, and 50 U/ml of penicillin and streptomycin. Cells were tested for mycoplasma contamination using the MycoAlert Mycoplasma Detection kit (Lonza) and found to be mycoplasma-negative. For peptide assays, Jurkat T cells were rested overnight or for 2–3 hr in fresh RPMI complete. Cells were co-cultured for 16 to 48 hr with surrogate APCs: K562 transduced with A^b. After overnight incubation, cells were washed in MACS buffer and stained with anti-TCR, A^b, CD69 and CD25. EBY100 yeast cells were cultured in sterile filtered standard YPD (Bacto Peptone, glucose and yeast extract). Transformed yeast were grown in SDCAA (yeast nitrogen base, casamino acids -ADE, -URA, -TRP, D-glucose and buffered to pH 4.5 using sodium citrate and citric acid monohydrate) and induced in SGCAA where galactose replaces D-glucose. EBY100 cells are grown at 30°C when cultured in SDCAA, or at 20°C when cultured in SGCAA at atmospheric CO2 in an orbital shaker set to an agitation speed of 250 rpm.

vTreg53 (Fat) TCR = test: Surface plasmon resonance, pMHC/Fat TCR affinity; type: binding, murine; conditions: 25°C
Experimental: as §1
High Five cells (Tni; Expression Systems) were grown in Insect X-press media (Lonza) or ESF 921 media (Expression Systems) with a final concentration of 10 mg/L of gentamicin sulfate (ThermoFisher) at 27°C at atmospheric CO2. SF9 cells are grown in SF900-III or -II serum-free media (ThermoFisher) with 10% FBS and final concentration 10 mg/L of gentamicin sulfate and 2 mM glutamax at 27°C at atmospheric CO2. P1 or P2 virus was used to infect volumes of 1–3 L of Hi5 cells at ∼2 × 10^6 cells/ml. Supernatant was harvested 2–3 days post-infection and spun down at 8000 rpm for 15 min. The supernatant containing expressed protein was treated to 100 mM Tris pH 8.0, 1 mM NiCl2, and 5 mM CaCl2 to precipitate contaminants. The supernatant and precipitate mixture was spun down at 8000 rpm for 20 min at 4°C to remove precipitate. The supernatant was incubated with Ni-NTA resin (QIAGEN) for >3 hr at room temperature. Ni-NTA beads were collected and washed in a Buchner funnel with 20 mM imidazole in 1 x HBS pH 7.2 and eluted with 200 mM imidazole in 1x HBS pH 7.2. Protein was concentrated in a 10 kDa filter (Millipore, UFC903024) to ~1 mL. When appropriate, protein was biotinylated with BirA ligase, 100 μM biotin, 40 mM Bicine pH 8.3, 10 mM ATP, and 10 mM Magnesium Acetate at 4°C overnight. All proteins were further purified by size-exclusion chromatography using Superdex Increase S200 or S75, as appropriate (GE Healthcare). All proteins for in vivo studies were cleared of endotoxin. Final endotoxin levels were determined using a chromogenic endotoxin quantitation kit (Thermo Fisher) and never greater than 1 Endotoxin Unit/mg of purified protein.
A GE Biacore T100 was used to measure the KD by equilibrium methods. Approximately 200 resonance units (RU) of human CD45, PD-1 or mouse PD-1 was captured on a SA-chip (GE Healthcare), including a reference channel of an unrelated protein. SPR runs were performed in HBS-P+ (GE Healthcare). All measurements were made with 2-fold serial dilutions using 45–60 s association (at 30 μl/min) followed by >240 s dissociation (30 μl/min) at 25°C. Regeneration was performed using HBS-P+, 2 M MgCl2 or 0.1 M Glycine, pH 3.1 for 15–20 s at 50 μl/min. Measurement of titrations at equilibrium were used to determine the KD using Biacore Analysis Software (GE Healthcare). All measurements were repeated twice.

- EC50 ([1]; peptide titration, CD69 (Figure 3D), overnight, mean ± SD from n = 2 biological replicates, 1 representative of 3 experiments): 40.7 µM
- Kd (vTreg53 (Fat) TCR; Biacore T100, biotinylated pMHC immobilized on SA chip 200 to 600 RU, HBS-P+, equilibrium, representative of 2 experiments): 32.8 µM
Sequence: TMYKNPRPVAATG [Fat15]
- CD69 up-regulation ([1]; overnight stimulation, screen at 100 µM): able to up-regulate CD69 expression
- koff (vTreg53 (Fat) TCR; SPR): fast kon and koff
- kon (vTreg53 (Fat) TCR; SPR): fast kon
